From the supplement of paper PMC10307832

How the values were obtained:
Experiment in all cases: relative viability (nuclei count vs DMSO), 5 days (fraction); higher = more cells survive
AZD1208 + Lapatinib = compound: N[C@@H]1CCCN(c2c(/C=C3\SC(=O)NC3=O)cccc2-c2ccccc2)C1 [AZD1208] + CS(=O)(=O)CCNCc1ccc(-c2ccc3ncnc(Nc4ccc(OCc5cccc(F)c5)c(Cl)c4)c3c2)o1 [Lapatinib] (partner 2 µM)
Procedure, shortened: (§1)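 Lung cancer cell lines in 1536-well plates got either a single drug or a fixed anchor-drug dose together with five library-drug doses (not always all listed) in √10 steps, by pin tool, on the day after seeding. Nuclei were counted after 5 days, and relative viability is the treated-to-vehicle ratio of nuclei counts. Values are medians of duplicate plates.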

AZD1208 + Alpelisib = compound: N[C@@H]1CCCN(c2c(/C=C3\SC(=O)NC3=O)cccc2-c2ccccc2)C1 [AZD1208] + Cc1nc(NC(=O)N2CCC[C@H]2C(N)=O)sc1-c1ccnc(C(C)(C)C(F)(F)F)c1 [Alpelisib] (partner 2 µM)
Procedure, shortened: as §1

XMD14-99 + Lapatinib = compound: CN1CCN(CC1)C2=CC(=C(C=C2)NC3=NC(=C(S3)C(=O)C4=C(C=CC=C4Cl)Cl)N)OC [XMD14-99] + CS(=O)(=O)CCNCc1ccc(-c2ccc3ncnc(Nc4ccc(OCc5cccc(F)c5)c(Cl)c4)c3c2)o1 [Lapatinib] (partner 2 µM)
Procedure, shortened: as §1

XMD14-99 + Pictilisib = compound: CN1CCN(CC1)C2=CC(=C(C=C2)NC3=NC(=C(S3)C(=O)C4=C(C=CC=C4Cl)Cl)N)OC [XMD14-99] + CS(=O)(=O)N1CCN(Cc2cc3nc(-c4cccc5[nH]ncc45)nc(N4CCOCC4)c3s2)CC1 [Pictilisib] (partner 1 µM)
Procedure, shortened: as §1

Cell Line | relative viability (AZD1208 + Lapatinib; first compound 0.08 µM) | relative viability (AZD1208 + Lapatinib; first compound 0.253 µM) | relative viability (AZD1208 + Lapatinib; first compound 0.8 µM) | relative viability (AZD1208 + Lapatinib; first compound 2.53 µM) | relative viability (AZD1208 + Lapatinib; first compound 8 µM) | relative viability (AZD1208 + Alpelisib; first compound 0.08 µM) | relative viability (AZD1208 + Alpelisib; first compound 0.253 µM) | relative viability (AZD1208 + Alpelisib; first compound 0.8 µM) | relative viability (AZD1208 + Alpelisib; first compound 2.53 µM) | relative viability (AZD1208 + Alpelisib; first compound 8 µM) | relative viability (XMD14-99 + Lapatinib; first compound 0.08 µM) | relative viability (XMD14-99 + Lapatinib; first compound 0.8 µM) | relative viability (XMD14-99 + Lapatinib; first compound 2.53 µM) | relative viability (XMD14-99 + Lapatinib; first compound 8 µM) | relative viability (XMD14-99 + Pictilisib; first compound 0.08 µM) | relative viability (XMD14-99 + Pictilisib; first compound 0.8 µM) | relative viability (XMD14-99 + Pictilisib; first compound 2.53 µM) | relative viability (XMD14-99 + Pictilisib; first compound 8 µM)
SK-MES-1 | 0.407 | 0.418 | 0.421 | 0.415 | 0.374 | 0.697 | 0.856 | 0.628 | 0.704 | 0.683 | 0.416 | 0.46 | 0.432 | 0.403 | 0.407 | 0.327 | 0.349 | 0.247
NCI-H2170 | 0.263 | 0.257 | 0.257 | 0.265 | 0.299 | 0.747 | 0.8 | 0.707 | 0.567 | 0.52 | 0.263 | 0.27 | 0.245 | 0.259 | 0.311 | 0.355 | 0.273 | 0.28
NCI-H2087 | 1.11 | 1.32 | 1.13 | 1.47 | 0.9 | 1.04 | 1.03 | 1.09 | 1.13 | 0.963 | 1.07 | 1.08 | 0.842 | 0.702 | 0.95 | 0.787 | 0.602 | 0.525
NCI-H838 | 0.988 | 1.17 | 0.856 | 0.936 | 0.86 | 0.962 | 1.13 | 0.887 | 0.959 | 0.882 | 0.947 | 0.993 | 0.851 | 0.69 | 0.434 | 0.411 | 0.38 | 0.296
NCI-H460 | 1.03 | 1.71 | 0.867 | 1.01 | 0.964 | 0.502 | 0.408 | 0.458 | 0.46 | 0.409 | 0.863 | 0.977 | 0.927 | 0.679 | 0.335 | 0.378 | 0.345 | 0.254
LOU-NH91 | 0.727 | 0.704 | 0.662 | 0.703 | 0.583 | 0.72 | 0.719 | 0.632 | 0.681 | 0.673 | 0.706 | 0.841 | 0.76 | 0.64 | 0.586 | 0.614 | 0.516 | 0.545
NCI-H322M | 0.574 | 0.568 | 0.507 | 0.578 | 0.56 | 0.718 | 0.718 | 0.75 | 0.73 | 0.821 | 0.573 | 0.583 | 0.609 | 0.598 | 0.514 | 0.538 | 0.495 | 0.476
NCI-H520 | 0.805 | 1.07 | 0.806 | 0.83 | 0.629 | 0.848 | 0.805 | 0.641 | 0.896 | 0.802 | 0.845 | 0.88 | 0.834 | 0.652 | 0.254 | 0.266 | 0.277 | 0.266
NCI-H661 | 0.397 | 0.425 | 0.396 | 0.383 | 0.46 | 0.706 | 0.815 | 0.529 | 0.724 | 0.665 | 0.391 | 0.521 | 0.425 | 0.402 | 0.375 | 0.322 | 0.389 | 0.298
NCI-H727 | 0.597 | 0.754 | 0.755 | 0.672 | 0.59 | 0.542 | 0.543 | 0.496 | 0.497 | 0.387 | 0.791 | 0.935 | 0.721 | 0.484 | 0.551 | 0.403 | 0.321 | 0.276
NCI-H1793 | 0.563 | 0.982 | 0.629 | 0.678 | 0.58 | 0.639 | 0.778 | 0.664 | 0.507 | 0.498 | 0.646 | 0.729 | 0.647 | 0.633 | 0.423 | 0.289 | 0.368 | 0.333
NCI-H1734 | 1.01 | 1.06 | 1.01 | 0.822 | 0.627 | 0.614 | 0.619 | 0.557 | 0.556 | 0.434 | 1.01 | 0.997 | 1.05 | 0.825 | 0.436 | 0.447 | 0.513 | 0.389
LXF-289 | 0.941 | 0.954 | 0.917 | 0.958 | 0.868 | 1.05 | 1.13 | 1.01 | 1.03 | 1.03 | 0.923 | 0.885 | 0.866 | 0.704 | 0.699 | 0.824 | 0.753 | 0.597
H3255 | 0.258 | 0.231 | 0.225 | 0.219 | 0.22 | 0.662 | 0.702 | 0.639 | 0.567 | 0.615 | 0.234 | 0.252 | 0.326 | 0.164 | 0.451 | 0.39 | 0.403 | 0.302
201T | 1.03 | 0.992 | 1.04 | 1.08 | 0.913 | 1.04 | 0.948 | 0.919 | 1.04 | 0.976 | 1.02 | 1.05 | 1 | 0.936 | 0.7 | 0.666 | 0.658 | 0.619
NCI-H2228 | 1.03 | 1.3 | 0.971 |  | 0.652 | 0.706 | 0.629 | 0.609 |  | 0.466 | 0.952 | 0.9 | 0.811 | 0.291 | 0.567 | 0.31 | 0.271 | 0.184
